From US5594144A, “Tropolone derivatives and pharmaceutical composition thereof for preventing and treating ischemic diseases” (The Upjohn Company, priority 1990, dated 1997)

What was measured:
[1] = tested on: Brain microsomal fractions; assay: in vitro Anti-lipid peroxidation effect (TBAR production, Fe3+-ADP/NADPH); type: biochemical, rat (SD strain, male)
Description: 1. in vitro Anti-lipid peroxidation effect
Brain microsomal fractions were prepared from male rats of SD strain, and a portion (0.2 mg protein) was incubated at 37° C. for 15 minutes with a mixture of Fe^3+ (0.1 mM)--ADP (0.5 mM) in the presence or absence of the test compound, in final volume of 1 ml of 10 mM HEPES, 150 mM KCl, 0.2 mM NADPH, pH 7.4. After incubation, 1.5 ml of TCA-TBA-HCl reagent (16.7% trichloroacetic acid, 0.4% thiobarbituric acid, 0.278N hydrochloric acid) was added and the reaction mixture was heated in a boiling water for 15 minutes. After cooling in ice-bath, the reaction mixture was centrifuged, and the absorbance of the supernatant at 535 nm was measured. The amount of thiobarbituric acid reactive substance (TBAR) was obtained by calculation using an extinction coefficient of 1.56×10^5 […]. […] The results are shown in Table 1A for compounds of the formulas IA, IB, and IC, respectively. The compounds with highest inhibition rate have the greatest anti-lipid peroxidation effect.

[2] = tested on: pig right coronary artery; assay: in vitro Ca-antagonism (high K+ induced 45Ca-influx); type: cell-based; settings: Sus scrofa, K+ 75 mM
Description: 2. in vitro Ca-antagonism
A strip of pig right coronary artery was depolarized with high K^+ (75 mM) for 30 minutes to induce voltage dependent ^45 Ca-influx. The extracellular ^45 Ca was chelated by adding EGTA and removed by washing, then the strip was lysed at 100° C. ^45 Ca in this lysate was measured as intracellular ^45 Ca by a scintillation counter. The concentration of the test compound was 10^-7, 10^-6, 10^-5 M, and applied until depolarization by K^+ was completed. Ratio of inhibition at various concentrations of the test compounds for increasing the intracellular ^45 Ca by K^+ was determined. The compound with high inhibition ratio has strong Ca-antagonism.

| SMILES | Anti-Lipid Peroxidation (% inhibition) 10 μM [1] | Anti-Lipid Peroxidation (% inhibition) 50 μM [1] | inhibition at 10 µM [2] |
| --- | --- | --- | --- |
| CCN(CC)CCNc1cc(C(C)C)ccc(CN2CCN(C(c3ccc(F)cc3)c3ccc(F)cc3)CC2)c1=O [Compound 7C, 2-(N-2-diethylaminoethylamino)-7-[4-(4,4'-difluorobenzhydryl)piperazino-1-methyl]-4-isopropyl-2,4,6-cycloheptatrien-1-one] | 21.3% | 90.4% | 67% |
| COc1cc(C(C)C)ccc(CN2CCN(C(c3ccc(C(F)(F)F)cc3)c3ccc(C(F)(F)F)cc3)CC2)c1=O [Compound 8A, 7-{4-[4,4'-di(trifluoromethyl)benzhydryl]piperazino-1-methyl}-4-isopropyl-2-methoxy-2,4,6-cycloheptatrien-1-one] | 32.3% | 51.8% | 27% |
| CC(C)c1ccc(CN2CCN(C(c3ccc(F)cc3)c3ccc(F)cc3)CC2)c(=O)c(NCCNCCN)c1 [Compound 8C, 2-[N-2-(N'-2-aminoethylamino)ethylamino]-7-[4-(4,4'-difluorobenzhydryl)piperazino-1-methyl]-4-isopropyl-2,4,6-cycloheptatrien-1-one] | 33.1% | 92.2% | 60% |
| COc1cc(C(C)C)ccc(CN2CCN(C(c3ccccc3)c3ccc(C(F)(F)F)cc3)CC2)c1=O (stereo not drawn) [Compound 9A, 4-isopropyl-2-methoxy-7-[4-(4-trifluoromethylbenzhydryl)piperazino-1-methyl]-2,4,6-cycloheptatrien-1-one] | 29.2% | 88.1% | 45% |
| CC(C)c1ccc(CN2CCN(C(c3ccc(F)cc3)c3ccc(F)cc3)CC2)c(=O)c(NCCNc2ccccn2)c1 [Compound 9C, 7-[4-(4,4'-difluorobenzhydryl)piperazino-1-methyl]-4-isopropyl-2-[N-2-(2-pyridylamino)ethylamino]-2,4,6-cycloheptatrien-1-one] | 88.1% | 91.6% | 38% |
| COc1ccc(C(c2ccc(Cl)cc2)N2CCN(Cc3ccc(C(C)C)cc(OC)c3=O)CC2)cc1 (stereo not drawn) [Compound 10A, 7-[4-(4-chloro-4'-methoxybenzhydryl)piperazin-1-methyl]-4-isopropyl-2-methoxy-2,4,6-cycloheptatrien-1-one] | 24.0% | 81.6% | 53% |
| CC(C)c1ccc(CN2CCN(C(c3ccc(F)cc3)c3ccc(F)cc3)CC2)c(=O)c(NCCNc2ncccn2)c1 [Compound 10C, 7-[4-(4,4'-difluorobenzhydryl)piperazino-1-methyl]-4-isopropyl-2-[N-2-(2-pyrimidylamino)ethylamino]-2,4,6-cycloheptatrien-1-one] | 46.3% | 92.5% | 65% |
| CC(C)c1ccc(CN2CCN(C(c3ccc(F)cc3)c3ccc(F)cc3)CC2)c(=O)c(NCCc2ccccn2)c1 [Compound 11C, 7-[4-(4,4'-difluorobenzhydryl)piperazino-1-methyl]-4-isopropyl-2-[N-2-(2-pyridyl)ethylamino]-2,4,6-cycloheptatrien-1-one] | 32.2% | 89.8% | 62% |
| CCOc1cc(C(C)C)ccc(CN2CCN(C(c3ccc(F)cc3)c3ccc(F)cc3)CC2)c1=O [Compound 12A, 7-[4-(4,4'-difluorobenzhydryl)piperazino-1-methyl]-2-ethoxy-4-isopropyl-2,4,6-cycloheptatrien-1-one] | 21.4% | 50.4% | 72% |
| CC(C)c1ccc(CN2CCN(C(c3ccc(F)cc3)c3ccc(F)cc3)CC2)c(=O)c(NCc2ccccn2)c1 [Compound 12C, 7-[4-(4,4'-difluorobenzhydryl)piperazino-1-methyl]-4-isopropyl-2-(N-2-pyridylmethylamino)-2,4,6-cycloheptatrien-1-one] | 86.4% | 89.3% | 47% |
| CCCCOc1cc(C(C)C)ccc(CN2CCN(C(c3ccc(F)cc3)c3ccc(F)cc3)CC2)c1=O [Compound 13A, 2-butoxy-7-[4-(4,4'-difluorobenzhydryl)piperazino-1-methyl]-4-isopropyl-2,4,6-cycloheptatrien-1-one] | 23.1% | 27.4% | 38% |
| CC(C)c1ccc(CN2CCN(C(c3ccc(F)cc3)c3ccc(F)cc3)CC2)c(=O)c(NCCO)c1 [Compound 13C, 7-[4-(4,4'-difluorobenzhydryl)piperazino-1-methyl]-2-(N-2-hydroxyethylamino)-4-isopropyl-2,4,6-cycloheptatrien-1-one] | 36.9% | 89.5% | 90% |
| COCCNc1cc(C(C)C)ccc(CN2CCN(C(c3ccc(F)cc3)c3ccc(F)cc3)CC2)c1=O [Compound 14C, 7-[4-(4,4'-difluorobenzhydryl)piperazino-1-methyl]-4-isopropyl-2-(N-2-methoxyethylamino)-2,4,6-cycloheptatrien-1-one] | 27.0% | 90.4% | 71% |
| CC(C)c1ccc(CN2CCN(C(c3ccc(F)cc3)c3ccc(F)cc3)CC2)c(=O)c(OCc2ccccc2)c1 [Compound 15A, 2-benzyloxy-7-[4-(4,4'-difluorobenzhydryl)piperazino-1-methyl]-4-isopropyl-2,4,6-cycloheptatrien-1-one] | 22.4% | 29.0% | 20% |
| COC(=O)CNc1cc(C(C)C)ccc(CN2CCN(C(c3ccc(F)cc3)c3ccc(F)cc3)CC2)c1=O [Compound 15C, methyl 2-{N-7-[4-(4,4'-difluorobenzhydryl)piperazino-1-methyl]-4-isopropyl-1-oxo-2,4,6-cycloheptatrien-2-ylamino}acetate] | 38.6% | 79.8% | 92% |
| COc1ccc(CCOc2cc(C(C)C)ccc(CN3CCN(C(c4ccc(F)cc4)c4ccc(F)cc4)CC3)c2=O)cc1OC [Compound 16A, 7-[4-(4,4'-difluorobenzhydryl)piperazino-1-methyl]-2-[2-(3,4-dimethoxyphenyl)ethoxy]-4-isopropyl-2,4,6-cycloheptatrien-1-one] | 19.1% | 19.1% | 52% |
| CCOC(=O)CCNc1cc(C(C)C)ccc(CN2CCN(C(c3ccc(F)cc3)c3ccc(F)cc3)CC2)c1=O [Compound 16C, ethyl 3-{N-7-[4-(4,4'-difluorobenzhydryl)piperazino-1-methyl]-4-isopropyl-1-oxo-2,4,6-cycloheptatrien-2-ylamino}propionate] | 29.1% | 58.0% | 47% |
| CC(C)c1ccc(CN2CCN(C(c3ccc(F)cc3)c3ccc(F)cc3)CC2)c(=O)c(N2CCCCC2)c1 [Compound 17C, 7-[4-(4,4'-difluorobenzhydryl)piperazino-1-methyl]-4-isopropyl-2-piperidino-2,4,6-cycloheptatrien-1-one] | 32.4% | 44.1% | 53% |
| CC(C)c1ccc(CN2CCN(C(c3ccc(F)cc3)c3ccc(F)cc3)CC2)c(=O)c(N2CCOCC2)c1 [Compound 18C, 7-[4-(4,4'-difluorobenzhydryl)piperazino-1-methyl]-4-isopropyl-2-morpholino-2,4,6-cycloheptatrien-1-one] | 26.7% | 41.2% | 84% |
